Test results taken from ChEMBL document CHEMBL5291721, “A preclinical secondary pharmacology resource illuminates target-adverse drug reaction associations of marketed drugs” (Nat Commun, 2023).

Columns and labels:
[1] = target: Muscarinic acetylcholine receptor M3 (Homo sapiens, UniProt P20309)
[2] = target: Glutamate receptor ionotropic, NMDA 1 (Rattus norvegicus, UniProt P35439)
[3] = target: T1, Muscarinic acetylcholine receptor M1 (Homo sapiens, UniProt P11229); format: functional
T1 sequence (P11229 whole entry): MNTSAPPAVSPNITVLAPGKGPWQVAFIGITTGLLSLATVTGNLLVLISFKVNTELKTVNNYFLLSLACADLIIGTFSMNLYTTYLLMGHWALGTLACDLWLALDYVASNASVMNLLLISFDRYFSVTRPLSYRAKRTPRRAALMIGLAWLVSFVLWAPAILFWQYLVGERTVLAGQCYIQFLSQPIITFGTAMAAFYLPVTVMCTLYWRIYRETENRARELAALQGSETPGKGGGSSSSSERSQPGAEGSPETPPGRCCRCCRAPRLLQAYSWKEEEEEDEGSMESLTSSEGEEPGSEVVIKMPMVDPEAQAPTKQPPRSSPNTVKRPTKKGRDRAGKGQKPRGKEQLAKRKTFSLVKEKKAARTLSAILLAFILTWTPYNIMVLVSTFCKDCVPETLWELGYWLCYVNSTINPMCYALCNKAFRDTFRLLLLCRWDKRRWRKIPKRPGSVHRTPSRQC

Glucocorticoid receptor = target: T2, Glucocorticoid receptor (Homo sapiens, UniProt P04150)
T2 sequence (P04150 whole entry): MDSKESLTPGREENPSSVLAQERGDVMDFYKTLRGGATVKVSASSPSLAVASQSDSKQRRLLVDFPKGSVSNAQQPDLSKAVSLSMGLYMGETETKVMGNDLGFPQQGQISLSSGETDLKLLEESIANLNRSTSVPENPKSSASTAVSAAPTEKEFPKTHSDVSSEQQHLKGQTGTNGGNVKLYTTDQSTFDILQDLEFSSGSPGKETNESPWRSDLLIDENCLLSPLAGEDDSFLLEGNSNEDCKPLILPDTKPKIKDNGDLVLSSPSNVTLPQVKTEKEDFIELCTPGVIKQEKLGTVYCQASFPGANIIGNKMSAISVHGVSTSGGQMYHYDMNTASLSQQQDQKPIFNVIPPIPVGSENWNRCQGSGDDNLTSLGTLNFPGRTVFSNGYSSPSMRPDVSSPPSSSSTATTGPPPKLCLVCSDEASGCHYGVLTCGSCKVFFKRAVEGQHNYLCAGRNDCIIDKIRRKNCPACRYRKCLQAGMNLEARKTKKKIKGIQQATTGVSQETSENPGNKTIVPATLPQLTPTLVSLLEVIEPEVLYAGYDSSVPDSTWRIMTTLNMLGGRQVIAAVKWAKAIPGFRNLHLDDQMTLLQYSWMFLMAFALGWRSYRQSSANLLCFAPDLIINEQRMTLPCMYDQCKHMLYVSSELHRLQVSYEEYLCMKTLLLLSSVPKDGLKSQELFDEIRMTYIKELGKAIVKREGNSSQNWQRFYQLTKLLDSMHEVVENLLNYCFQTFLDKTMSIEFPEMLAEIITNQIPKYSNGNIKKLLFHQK

[4] = target: T3, Muscarinic acetylcholine receptor M2 (Homo sapiens, UniProt P08172); format: functional, cell-based
T3 sequence (P08172 whole entry): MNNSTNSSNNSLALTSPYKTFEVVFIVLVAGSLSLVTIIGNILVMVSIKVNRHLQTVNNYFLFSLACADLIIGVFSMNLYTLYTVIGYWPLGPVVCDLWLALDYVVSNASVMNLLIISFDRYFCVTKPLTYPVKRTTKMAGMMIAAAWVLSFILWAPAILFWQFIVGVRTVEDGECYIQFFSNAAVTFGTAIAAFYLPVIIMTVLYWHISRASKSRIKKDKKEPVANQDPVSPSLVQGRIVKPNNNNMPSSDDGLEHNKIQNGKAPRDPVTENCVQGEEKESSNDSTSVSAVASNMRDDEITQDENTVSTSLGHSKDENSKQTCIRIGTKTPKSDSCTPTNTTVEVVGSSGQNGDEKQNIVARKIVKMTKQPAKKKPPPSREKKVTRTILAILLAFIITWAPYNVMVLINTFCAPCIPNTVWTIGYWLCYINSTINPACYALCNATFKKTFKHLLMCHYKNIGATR

Cannabinoid receptor 1 = Cannabinoid receptor 1 (Homo sapiens, UniProt P21554)
Chain of Cannabinoid receptor 1 (P21554 whole entry): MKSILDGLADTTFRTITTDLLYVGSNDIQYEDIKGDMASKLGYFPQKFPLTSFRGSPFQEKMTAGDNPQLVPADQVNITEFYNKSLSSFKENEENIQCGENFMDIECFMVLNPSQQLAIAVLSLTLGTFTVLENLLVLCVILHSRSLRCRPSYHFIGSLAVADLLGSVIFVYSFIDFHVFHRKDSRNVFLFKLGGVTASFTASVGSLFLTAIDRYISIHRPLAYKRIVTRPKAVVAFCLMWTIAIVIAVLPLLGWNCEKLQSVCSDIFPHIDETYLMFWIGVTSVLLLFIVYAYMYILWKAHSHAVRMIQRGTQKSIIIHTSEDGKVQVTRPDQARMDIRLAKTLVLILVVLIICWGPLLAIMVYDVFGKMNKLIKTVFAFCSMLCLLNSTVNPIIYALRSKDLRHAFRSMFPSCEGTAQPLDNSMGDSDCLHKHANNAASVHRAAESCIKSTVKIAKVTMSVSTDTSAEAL

Thromboxane A2 receptor = target: T4, Thromboxane A2 receptor (Homo sapiens, UniProt P21731); format: functional, cell-based
T4 sequence (P21731 whole entry): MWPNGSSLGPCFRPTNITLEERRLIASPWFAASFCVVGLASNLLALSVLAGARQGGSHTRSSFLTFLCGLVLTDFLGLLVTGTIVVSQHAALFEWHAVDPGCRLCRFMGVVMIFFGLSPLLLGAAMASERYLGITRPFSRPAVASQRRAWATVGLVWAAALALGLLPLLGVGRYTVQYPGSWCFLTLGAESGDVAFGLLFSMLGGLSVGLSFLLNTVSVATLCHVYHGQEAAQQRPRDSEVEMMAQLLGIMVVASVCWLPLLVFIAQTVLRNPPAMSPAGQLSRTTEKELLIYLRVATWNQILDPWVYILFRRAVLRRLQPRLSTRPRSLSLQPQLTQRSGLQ

Acetylcholinesterase = Acetylcholinesterase (Homo sapiens, UniProt P22303); format: functional
Chain of Acetylcholinesterase (P22303 whole entry): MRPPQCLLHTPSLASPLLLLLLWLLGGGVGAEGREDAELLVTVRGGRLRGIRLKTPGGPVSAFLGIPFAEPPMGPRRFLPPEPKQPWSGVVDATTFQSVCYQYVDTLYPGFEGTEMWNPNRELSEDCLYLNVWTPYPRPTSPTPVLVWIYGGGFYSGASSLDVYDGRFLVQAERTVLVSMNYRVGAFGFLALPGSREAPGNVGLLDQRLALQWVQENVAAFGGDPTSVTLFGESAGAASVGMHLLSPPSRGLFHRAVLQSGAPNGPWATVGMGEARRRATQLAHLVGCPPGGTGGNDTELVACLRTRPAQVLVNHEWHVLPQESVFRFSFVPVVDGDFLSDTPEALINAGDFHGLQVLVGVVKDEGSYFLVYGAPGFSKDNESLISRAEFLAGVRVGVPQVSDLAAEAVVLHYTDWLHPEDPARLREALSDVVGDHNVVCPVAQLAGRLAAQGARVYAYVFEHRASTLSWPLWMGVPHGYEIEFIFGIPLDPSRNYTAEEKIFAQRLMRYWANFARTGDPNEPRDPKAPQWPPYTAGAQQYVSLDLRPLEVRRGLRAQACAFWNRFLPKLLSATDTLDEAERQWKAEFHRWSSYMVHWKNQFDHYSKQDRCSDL

[5] = target: cGMP-inhibited 3',5'-cyclic phosphodiesterase 3A (Homo sapiens, UniProt Q14432); format: functional
Chain of cGMP-inhibited 3',5'-cyclic phosphodiesterase 3A (Q14432 whole entry): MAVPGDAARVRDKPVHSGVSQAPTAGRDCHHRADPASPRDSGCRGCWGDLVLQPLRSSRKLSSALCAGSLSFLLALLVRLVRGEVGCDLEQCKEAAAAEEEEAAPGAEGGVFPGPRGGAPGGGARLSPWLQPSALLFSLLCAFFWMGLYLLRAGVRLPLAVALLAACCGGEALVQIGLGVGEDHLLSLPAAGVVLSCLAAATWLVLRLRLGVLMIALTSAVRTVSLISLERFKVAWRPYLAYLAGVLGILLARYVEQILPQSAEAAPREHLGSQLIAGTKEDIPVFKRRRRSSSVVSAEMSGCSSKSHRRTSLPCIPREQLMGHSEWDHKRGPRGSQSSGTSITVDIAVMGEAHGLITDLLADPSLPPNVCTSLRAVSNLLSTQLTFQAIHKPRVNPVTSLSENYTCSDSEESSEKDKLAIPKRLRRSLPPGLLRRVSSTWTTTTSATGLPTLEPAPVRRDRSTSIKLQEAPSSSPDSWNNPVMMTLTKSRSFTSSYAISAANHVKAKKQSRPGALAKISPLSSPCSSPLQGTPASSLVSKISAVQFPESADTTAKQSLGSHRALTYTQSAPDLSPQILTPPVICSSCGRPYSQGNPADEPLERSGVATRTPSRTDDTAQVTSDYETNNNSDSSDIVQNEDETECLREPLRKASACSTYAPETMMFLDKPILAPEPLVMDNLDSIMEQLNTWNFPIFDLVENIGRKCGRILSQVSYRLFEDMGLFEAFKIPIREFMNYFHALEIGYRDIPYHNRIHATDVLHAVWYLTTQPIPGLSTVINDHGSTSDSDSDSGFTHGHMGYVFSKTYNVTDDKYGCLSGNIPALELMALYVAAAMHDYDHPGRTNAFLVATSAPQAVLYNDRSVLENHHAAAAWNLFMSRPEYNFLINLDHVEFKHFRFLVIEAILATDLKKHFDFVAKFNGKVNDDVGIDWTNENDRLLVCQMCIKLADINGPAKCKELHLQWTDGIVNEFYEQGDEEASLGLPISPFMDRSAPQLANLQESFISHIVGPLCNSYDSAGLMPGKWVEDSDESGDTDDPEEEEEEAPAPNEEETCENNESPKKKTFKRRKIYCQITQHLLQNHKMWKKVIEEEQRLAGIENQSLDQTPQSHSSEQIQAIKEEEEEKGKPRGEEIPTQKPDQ

[6] = target: 3',5'-cyclic-AMP phosphodiesterase 4A (Homo sapiens, UniProt P27815); format: functional
Chain of 3',5'-cyclic-AMP phosphodiesterase 4A (P27815 whole entry): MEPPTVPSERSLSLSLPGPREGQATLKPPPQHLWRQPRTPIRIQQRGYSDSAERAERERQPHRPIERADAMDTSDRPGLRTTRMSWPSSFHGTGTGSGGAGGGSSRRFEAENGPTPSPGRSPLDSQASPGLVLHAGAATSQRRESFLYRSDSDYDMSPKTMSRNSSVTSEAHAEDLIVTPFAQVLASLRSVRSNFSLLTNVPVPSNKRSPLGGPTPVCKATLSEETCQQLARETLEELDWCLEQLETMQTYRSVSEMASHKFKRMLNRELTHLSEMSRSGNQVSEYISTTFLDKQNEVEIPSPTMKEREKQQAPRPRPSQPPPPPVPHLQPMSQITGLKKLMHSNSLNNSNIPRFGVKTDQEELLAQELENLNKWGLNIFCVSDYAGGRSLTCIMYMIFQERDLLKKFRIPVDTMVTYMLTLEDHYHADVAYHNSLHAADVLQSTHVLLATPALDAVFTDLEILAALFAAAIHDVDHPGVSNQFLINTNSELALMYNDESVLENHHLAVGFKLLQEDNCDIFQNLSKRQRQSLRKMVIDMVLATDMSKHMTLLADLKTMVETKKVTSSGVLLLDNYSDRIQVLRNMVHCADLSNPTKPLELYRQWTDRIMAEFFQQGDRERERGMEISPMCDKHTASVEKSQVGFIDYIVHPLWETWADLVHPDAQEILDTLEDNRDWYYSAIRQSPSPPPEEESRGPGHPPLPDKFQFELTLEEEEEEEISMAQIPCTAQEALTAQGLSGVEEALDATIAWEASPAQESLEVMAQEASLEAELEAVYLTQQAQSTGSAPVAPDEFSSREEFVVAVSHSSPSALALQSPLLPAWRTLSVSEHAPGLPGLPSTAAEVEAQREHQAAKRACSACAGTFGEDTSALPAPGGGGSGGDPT

[7] = target: T5, 5-hydroxytryptamine receptor 1A (Homo sapiens, UniProt P08908)
T5 sequence (P08908 whole entry): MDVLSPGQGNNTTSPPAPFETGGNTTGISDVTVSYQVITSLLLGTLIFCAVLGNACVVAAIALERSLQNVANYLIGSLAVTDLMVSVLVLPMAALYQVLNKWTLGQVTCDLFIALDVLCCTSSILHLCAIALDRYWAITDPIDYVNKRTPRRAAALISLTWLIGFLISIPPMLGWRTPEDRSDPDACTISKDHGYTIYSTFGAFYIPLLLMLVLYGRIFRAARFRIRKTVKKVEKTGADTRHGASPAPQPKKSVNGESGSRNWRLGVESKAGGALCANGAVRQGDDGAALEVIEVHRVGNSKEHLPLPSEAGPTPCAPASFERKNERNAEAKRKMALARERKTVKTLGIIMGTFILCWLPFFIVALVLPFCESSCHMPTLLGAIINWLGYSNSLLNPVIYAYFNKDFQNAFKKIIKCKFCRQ

[8] = target: Prostaglandin G/H synthase 1 (Homo sapiens, UniProt P23219); format: functional
Chain of Prostaglandin G/H synthase 1 (P23219 whole entry): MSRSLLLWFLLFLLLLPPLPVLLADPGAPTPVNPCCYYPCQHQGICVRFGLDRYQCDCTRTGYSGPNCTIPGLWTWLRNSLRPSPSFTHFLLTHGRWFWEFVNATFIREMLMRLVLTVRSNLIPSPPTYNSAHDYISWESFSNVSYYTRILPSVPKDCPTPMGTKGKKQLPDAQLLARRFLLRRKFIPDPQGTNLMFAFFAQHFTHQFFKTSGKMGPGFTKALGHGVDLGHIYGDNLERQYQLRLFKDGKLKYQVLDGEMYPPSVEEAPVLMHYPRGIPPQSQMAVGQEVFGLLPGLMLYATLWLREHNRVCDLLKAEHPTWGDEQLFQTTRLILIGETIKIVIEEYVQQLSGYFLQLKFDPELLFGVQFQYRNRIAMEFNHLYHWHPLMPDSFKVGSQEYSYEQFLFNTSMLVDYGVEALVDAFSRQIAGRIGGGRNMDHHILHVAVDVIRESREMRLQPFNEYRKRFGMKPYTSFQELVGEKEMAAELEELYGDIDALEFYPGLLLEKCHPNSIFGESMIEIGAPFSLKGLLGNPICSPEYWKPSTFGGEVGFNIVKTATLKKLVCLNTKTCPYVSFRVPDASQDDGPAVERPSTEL
Also: assay procedure not described here.

Chain of Muscarinic acetylcholine receptor M3 (P20309 whole entry): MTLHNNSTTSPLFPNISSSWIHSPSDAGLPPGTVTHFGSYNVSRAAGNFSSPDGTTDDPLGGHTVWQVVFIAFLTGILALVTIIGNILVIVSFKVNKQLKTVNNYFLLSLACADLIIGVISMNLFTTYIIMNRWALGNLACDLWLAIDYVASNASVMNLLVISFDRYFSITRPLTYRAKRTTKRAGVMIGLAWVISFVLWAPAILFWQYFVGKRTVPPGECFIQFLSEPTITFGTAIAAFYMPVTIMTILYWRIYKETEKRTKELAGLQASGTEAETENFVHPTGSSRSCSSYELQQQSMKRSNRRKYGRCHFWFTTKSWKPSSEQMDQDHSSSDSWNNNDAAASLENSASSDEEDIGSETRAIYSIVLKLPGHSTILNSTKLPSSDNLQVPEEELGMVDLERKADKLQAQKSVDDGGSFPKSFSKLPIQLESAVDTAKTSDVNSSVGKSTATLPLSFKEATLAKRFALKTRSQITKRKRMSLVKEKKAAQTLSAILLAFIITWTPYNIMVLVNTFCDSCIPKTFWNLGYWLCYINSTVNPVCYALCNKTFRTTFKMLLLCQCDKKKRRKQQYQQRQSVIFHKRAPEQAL

Row | Structure (SMILES) | AC50 [1] [µM] | AC50 [2] [µM] | AC50 [3] [µM] | AC50 (Glucocorticoid receptor) [µM] | AC50 [4] [µM] | AC50 (Cannabinoid receptor 1) [µM] | AC50 (Thromboxane A2 receptor) [µM] | AC50 (Acetylcholinesterase) [µM] | AC50 [5] [µM] | AC50 [6] [µM] | AC50 [7] [µM] | AC50 [8] [µM]
1 | CC(N)Cc1ccccc1 (stereo not given) [AMPHETAMINE] | > 30 | > 10 | > 30 | > 30 | > 30 | > 10 | – | – | – | – | – | –
2 | CC(C(=O)O)c1ccc(C(=O)c2cccs2)cc1 (stereo not given) [SUPROFEN] | > 30 | > 10 | > 10 | > 10 | > 10 | > 10 | – | – | – | – | – | –
3 | CC(C(=O)O)c1ccc(N2CC=CC2)c(Cl)c1 (stereo not given) [PIRPROFEN] | > 10 | > 10 | > 10 | > 30 | > 10 | > 10 | > 30 | > 30 | > 30 | > 30 | > 30 | 0.115
4 | C[C@@H]1O[C@@H]1P(=O)(O)O [FOSFOMYCIN] | > 30 | > 10 | > 10 | > 30 | > 10 | > 10 | – | – | – | – | – | –
5 | COC(=O)N[C@H](C(=O)N[C@@H](Cc1ccccc1)[C@@H](O)CN(Cc1ccc(-c2ccccn2)cc1)NC(=O)[C@@H](NC(=O)OC)C(C)(C)C)C(C)(C)C [ATAZANAVIR] | > 30 | > 10 | > 10 | > 30 | > 10 | > 10 | – | – | – | – | – | –
6 | CO/N=C(\C(=O)N[C@@H]1C(=O)N2C(C(=O)[O-])=C(C[N+]3(C)CCCC3)CS[C@H]12)c1csc(N)n1 | > 300 | > 30 | > 300 | > 30 | > 300 | > 30 | – | – | – | – | – | –
7 | CN(CCOc1ccc(NS(C)(=O)=O)cc1)CCc1ccc(NS(C)(=O)=O)cc1 [DOFETILIDE] | > 10 | > 10 | > 10 | > 30 | > 30 | > 10 | > 30 | 13.6 | > 30 | > 30 | > 30 | > 30
8 | CC(C)NCC(O)COc1ccc(COCCOC(C)C)cc1 (stereo not given) [BISOPROLOL] | > 30 | > 10 | > 10 | > 30 | > 10 | > 10 | – | – | – | – | – | –
9 | COC(=O)N[C@H](C(=O)N1CCC[C@H]1c1nc(-c2ccc(-c3ccc(-c4c[nH]c([C@@H]5CCCN5C(=O)[C@@H](NC(=O)OC)C(C)C)n4)cc3)cc2)c[nH]1)C(C)C | > 30 | > 30 | > 30 | > 30 | > 30 | > 30 | – | – | – | – | – | –
10 | COc1ccc2c(c1)C(=O)N(CCc1ccc(S(=O)(=O)NC(=O)NC3CCCCC3)cc1)C(=O)C2(C)C [GLIQUIDONE] | > 30 | > 30 | > 30 | > 30 | > 30 | > 30 | – | – | – | – | – | –
11 | Cc1ccc(C(=O)c2cc(O)c(O)c([N+](=O)[O-])c2)cc1 [TOLCAPONE] | > 30 | > 10 | > 10 | > 30 | > 10 | > 10 | – | – | – | – | – | –
12 | COc1cc2c(cc1OC)C(=O)C(CC1CCN(Cc3ccccc3)CC1)C2 (stereo not given) [DONEPEZIL] | > 30 | – | 8.2 | – | – | > 10 | > 30 | – | > 30 | > 30 | – | > 30
